Assay results from article PMC11070402, “New antiproliferative 3-substituted oxindoles inhibiting EGFR/VEGFR-2 and tubulin polymerization” (Molecular Diversity, 2023).
Where “and” joins values, the source holds several entries; their conditions need not be identical. Equal entries are not always repeated. Where two headings read alike, the source gives them in different places.

Assays:
MCF-7 = assay: NCI one-dose assay, MCF-7; type: cell-based, human; conditions: MCF-7, 10 µM single dose, 48 h incubation
Procedure: (§1) All novel scaffolds 6a–j were carefully selected by the National Cancer Institute (NCI), Bethesda, USA, to elucidate their cytotoxic activity versus 60 human cancer cell lines at 10 µM as a single-dose concentration after a 48 h incubation period.
(§2) National Cancer Institution selected all the synthesized 6a–j (NCI), Bethesda, USA, for in vitro one-dose antitumor assay. The methodology protocol for the NCI anticancer screening was reported in detail elsewhere (http://www.dtp.nci.nih.gov). The anticancer assay was performed in full NCI 60 cell lines extracted from nine tumor cell lines, including leukemia, melanoma, lung, colon, CNS, ovarian, renal, prostate, and breast cancer cell lines.

SK-MEL-5 = assay: NCI one-dose assay, SK-MEL-5; type: cell-based; conditions: Homo sapiens; SK-MEL-5; 10 µM single dose, 48 h incubation; read-out: cell growth inhibition % (GI %)
Procedure: as §1, §2

MOLT-4 = assay: NCI one-dose assay, MOLT-4; type: cell-based; conditions: Homo sapiens; MOLT-4; 10 µM single dose, 48 h incubation; read-out: cell growth inhibition % (GI %)
Procedure: as §1, §2

[1] = tested on: HOP-92 (non-small cell lung cancer cell line); assay: NCI one-dose assay, HOP-92; type: cell-based; conditions: Homo sapiens; HOP-92 (Non-Small Cell Lung Cancer), 10 uM single dose; read-out: Growth inhibition %
Procedure: as §1, §2

[2] = tested on: 60 human cancer cell lines; assay: NCI one-dose assay against sixty NCI cancer cell lines; type: cell-based
Procedure: as §1, §2

[3] = tested on: MCF-7 (human breast cancer); assay: Cytotoxicity versus MCF-7 cell line (MTT assay); conditions: MCF7, read-out: MCF-7 (IC50 ± SD, uM)
Procedure: IC50 values were recorded using the Boltzman sigmoidal concentration–response curve equation using the nonlinear regression fitting models by GraphPad, Prism version 5 (GraphPad Software Inc., La Jolla, CA). MTT assay for MCF-7 cell lines. Cell line cells were obtained from American Type Culture Collection. Cells were cultured using DMEM media (Invitrogen/Life Technologies) supplemented with 10% FBS (Hyclone), 10 ug/ml of insulin (Sigma), and 1% penicillin–streptomycin. All the other chemicals and reagents were purchased from Sigma or Invitrogen. Cells were seeded in plates (cells density 1.2–1.8 × 10,000 cells/well) in a volume of 100 μl full-growth medium + 100 μl of the tested scaffold per well in a 96-well plate for 24 h before the application of the MTT assay protocol as reported, supplementary information.

[4] = tested on: SNB-75 cells (CNS cancer cell line); assay: NCI one-dose assay, SNB-75; type: cell-based; conditions: Homo sapiens; SNB-75 (CNS Cancer), 10 uM single dose; read-out: Growth inhibition %
Procedure: as §1, §2

K-562 = assay: NCI one-dose assay, K-562; type: cell-based; conditions: Homo sapiens, K562; K-562; 10 µM single dose, 48 h incubation; read-out: cell growth inhibition % (GI %)
Procedure: as §1, §2

NCI-H23 = assay: NCI one-dose assay, NCI-H23; type: cell-based; conditions: Homo sapiens; NCI-H23; 10 µM single dose, 48 h incubation; read-out: cell growth inhibition % (GI %)
Procedure: as §1, §2

SR = assay: NCI one-dose assay, SR; type: cell-based; conditions: Homo sapiens; SR; 10 µM single dose, 48 h incubation; read-out: cell growth inhibition % (GI %)
Procedure: as §1, §2

LOX IMVI = assay: NCI one-dose assay, LOX IMVI; type: cell-based; conditions: Homo sapiens; LOX IMVI; 10 µM single dose, 48 h incubation; read-out: cell growth inhibition % (GI %)
Procedure: as §1, §2

T-47D = assay: NCI one-dose assay, T-47D; type: cell-based; conditions: Homo sapiens, T47D; T-47D; 10 µM single dose, 48 h incubation; read-out: cell growth inhibition % (GI %)
Procedure: as §1, §2

UO-31 = assay: NCI one-dose assay, UO-31; type: cell-based; conditions: Homo sapiens; UO-31; 10 µM single dose, 48 h incubation; read-out: cell growth inhibition % (GI %)
Procedure: as §1, §2

A549/ATCC = assay: NCI one-dose assay, A549/ATCC; type: cell-based; conditions: Homo sapiens, 10 µM single dose, 48 h incubation, read-out: cell growth inhibition % (GI %)
Procedure: as §1, §2

O=C1Nc2cc(Cl)ccc2C1=Cc1ccc(OCC(=O)c2ccc(Br)cc2)cc1 [Compound 6g, 6-Chloro-3-{4-[2-(4-bromophenyl)-2-oxoethoxy]benzylidene}indolin-2-one]
inhibition at 10 µM (MCF-7; Homo sapiens, MCF7, 48 h, read-out: cell growth inhibition % (GI %)): 70.3% | cell growth inhibition % (GI %) (MCF-7): 70.03% and 71.12% | inhibition at 10 µM (SK-MEL-5): 61.2% | inhibition at 10 µM (MOLT-4): 61.6% | inhibition at 10 µM [1]: 30.8% | inhibition at 10 µM ([2]; 786-0 (Renal Cancer), 10 uM single dose, read-out: Growth inhibition %): 15.6% | inhibition at 10 µM ([2]; ACHN (Renal Cancer), 10 uM single dose, read-out: Growth inhibition %): 31.2% | inhibition at 10 µM ([2]; BT-549 (Breast Cancer), 10 uM single dose, read-out: Growth inhibition %): 44.3% | inhibition at 10 µM ([2]; CAKI-1 (Renal Cancer), 10 uM single dose, read-out: Growth inhibition %): 47.6% | inhibition at 10 µM ([2]; CCRF-CEM (Leukemia), 10 uM single dose, read-out: Growth inhibition %): 34.3% | inhibition at 10 µM ([2]; COLO 205 (Colon Cancer), 10 uM single dose, read-out: Growth inhibition %): 44.7% | inhibition at 10 µM ([2]; DU-145 (Prostate Cancer), 10 uM single dose, read-out: Growth inhibition %): 12.4% | inhibition at 10 µM ([2]; EKVX (Non-Small Cell Lung Cancer), 10 uM single dose, read-out: Growth inhibition %): 43.8% | inhibition at 10 µM ([2]; HCC-2998 (Colon Cancer), 10 uM single dose, read-out: Growth inhibition %): 17.5% | inhibition at 10 µM ([2]; HCT-15 (Colon Cancer), 10 uM single dose, read-out: Growth inhibition %): 46.9% | inhibition at 10 µM ([2]; HCT-116 (Colon Cancer), 10 uM single dose, read-out: Growth inhibition %): 42.1% | inhibition at 10 µM ([2]; HL-60(TB) (Leukemia), 10 uM single dose, read-out: Growth inhibition %): 53.8% | inhibition at 10 µM ([2]; HS 578T (Breast Cancer), 10 uM single dose, read-out: Growth inhibition %): 22.4% | inhibition at 10 µM ([2]; HT-29, HT29 (Colon Cancer), 10 uM single dose, read-out: Growth inhibition %): 16.1% | inhibition at 10 µM ([2]; IGROV-1, IGROV1 (Ovarian Cancer), 10 uM single dose, read-out: Growth inhibition %): 34.6% | inhibition at 10 µM ([2]; KM12 (Colon Cancer), 10 uM single dose, read-out: Growth inhibition %): 28.7% | inhibition at 10 µM ([2]; M14 (Melanoma), 10 uM single dose, read-out: Growth inhibition %): 31.1% | inhibition at 10 µM ([2]; MALME-3M (Melanoma), 10 uM single dose, read-out: Growth inhibition %): 12.9% | inhibition at 10 µM ([2]; MDA-MB-231, read-out: Growth inhibition %): 23.4% | inhibition at 10 µM ([2]; MDA-MB-435 (Melanoma), 10 uM single dose, read-out: Growth inhibition %): 24.8% | inhibition at 10 µM ([2]; MDA-MB-468 (Breast Cancer), 10 uM single dose, read-out: Growth inhibition %): 42.3% | inhibition at 10 µM ([2]; NCI-H226 (Non-Small Cell Lung Cancer), 10 uM single dose, read-out: Growth inhibition %): 37.9% | inhibition at 10 µM ([2]; NCI-H322M (Non-Small Cell Lung Cancer), 10 uM single dose, read-out: Growth inhibition %): 18.1% | inhibition at 10 µM ([2]; NCI-H460 (Non-Small Cell Lung Cancer), 10 uM single dose, read-out: Growth inhibition %): 41% | inhibition at 10 µM ([2]; NCI-H522 (Non-Small Cell Lung Cancer), 10 uM single dose, read-out: Growth inhibition %): 49.4% | inhibition at 10 µM ([2]; OVCAR-3 (Ovarian Cancer), 10 uM single dose, read-out: Growth inhibition %): 15.7% | inhibition at 10 µM ([2]; OVCAR-4 (Ovarian Cancer), 10 uM single dose, read-out: Growth inhibition %): 44.5% | inhibition at 10 µM ([2]; OVCAR-5 (Ovarian Cancer), 10 uM single dose, read-out: Growth inhibition %): 13.9% | inhibition at 10 µM ([2]; OVCAR-8 (Ovarian Cancer), 10 uM single dose, read-out: Growth inhibition %): 30.7% | inhibition at 10 µM ([2]; PC-3 (Prostate Cancer), 10 uM single dose, read-out: Growth inhibition %): 51.4% | inhibition at 10 µM ([2]; RPMI-8226 (Leukemia), 10 uM single dose, read-out: Growth inhibition %): 43.6% | inhibition at 10 µM ([2]; RXF 393 (Renal Cancer), 10 uM single dose, read-out: Growth inhibition %): 44.8% | inhibition at 10 µM ([2]; SF-268 (CNS Cancer), 10 uM single dose, read-out: Growth inhibition %): 22% | inhibition at 10 µM ([2]; SF-295 (CNS Cancer), 10 uM single dose, read-out: Growth inhibition %): 45.1% | inhibition at 10 µM ([2]; SF-539 (CNS Cancer), 10 uM single dose, read-out: Growth inhibition %): 30.6% | inhibition at 10 µM ([2]; SK-MEL-2 (Melanoma), 10 uM single dose, read-out: Growth inhibition %): 29.8% | inhibition at 10 µM ([2]; SK-MEL-28 (Melanoma), 10 uM single dose, read-out: Growth inhibition %): 19.4% | inhibition at 10 µM ([2]; SN12C (Renal Cancer), 10 uM single dose, read-out: Growth inhibition %): 45.2% | inhibition at 10 µM ([2]; SNB-19 (CNS Cancer), 10 uM single dose, read-out: Growth inhibition %): 18.5% | inhibition at 10 µM ([2]; SW-620 (Colon Cancer), 10 uM single dose, read-out: Growth inhibition %): 14.1% | inhibition at 10 µM ([2]; U-251, U251 (CNS Cancer), 10 uM single dose, read-out: Growth inhibition %): 25.8% | inhibition at 10 µM ([2]; UACC-62 (Melanoma), 10 uM single dose, read-out: Growth inhibition %): 42% | inhibition at 10 µM ([2]; UACC-257 (Melanoma), 10 uM single dose, read-out: Growth inhibition %): 27.1% | IC50 [3]: 25.4 ± 1.23 µM | inhibition at 10 µM [4]: 31.1% | inhibition at 10 µM (K-562): 58.3% | inhibition at 10 µM (NCI-H23): 46.8% | inhibition at 10 µM (SR): 59.7% | inhibition at 10 µM (LOX IMVI): 45.8% | inhibition at 10 µM (T-47D): 55.2% | inhibition at 10 µM (UO-31): 59.4% | inhibition at 10 µM (A549/ATCC): 49.9%
